# Data as given in patent US8513430B2, “Substituted thiazol-2-ylamine derivatives, pharmaceutical compositions, and methods of use as 11-beta HSD1 modulators” (High Point Pharmaceuticals, LLC, priority 2010, dated 2013).
# Biological target: T1, 11βHSD1 (Homo sapiens, UniProt P28845)
# T1 construct: from tissue
# Assay: in vitro 11β-HSD assay (human microsomes, CISBIO cortisol kit)
# Format: biochemical
# Settings: 160 nM cortisone, 200 μM NADPH, 2 h at 37° C., pH 6.0
# Experimental: The following assay methods were used to identify and evaluate compounds of Formula (I) that are effective in modulating 11βHSD1.
# CISBIO Cortisol kit #62CO2PEB
# Assay Buffer: (water based) used for Enzyme, Compounds and Microsomes: 20 mM Tris, 5 mM EDTA, and pH 6.0.
# Enzyme Buffer: 333 μM NADPH (FAC 200 μM) and 266 nM Cortisone (FAC 160 nM).
# 1) Test compounds (10 mM stock in 100% DMSO) were diluted in Assay Buffer (see below) with 1% DMSO FAC and placed into the 96-well plate. Test compounds were typically tested over 10 concentrations (30 μM-0.3 nM).
# 2) 30 μL Enzyme Buffer, 10 μL Test Compound, 10 μL human microsomes were added to the test compounds and mixed gently by tapping the plate.
# 3) The plates were incubated for 2 h at 37° C.
# 4) 25 μL anti Cortisol-K and 25 μL Cortisol d2 were added to the plate and mixed gently by tapping the plate.
# 5) The plates were incubated at room temperature for 2 h.
# 6) The plates were read on an Envision model 2120 Perkin-Elmer using emission filters #205 and #217.
# T1 sequence (P28845 whole entry): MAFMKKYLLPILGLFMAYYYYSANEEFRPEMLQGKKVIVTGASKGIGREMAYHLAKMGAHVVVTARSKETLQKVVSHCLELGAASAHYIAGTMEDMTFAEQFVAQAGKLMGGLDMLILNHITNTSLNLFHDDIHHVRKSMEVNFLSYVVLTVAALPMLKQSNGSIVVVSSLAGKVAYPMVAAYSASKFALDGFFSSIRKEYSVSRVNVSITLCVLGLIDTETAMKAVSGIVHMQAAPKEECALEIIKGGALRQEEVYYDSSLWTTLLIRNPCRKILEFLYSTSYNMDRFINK
row,Structure (SMILES),EC50 [nM]
1,"O=C(N[C@H]1C2CC3CC1C[C@](O)(C3)C2)c1csc(NCc2ccco2)n1 [Example 1, 2-[(Furan-2-ylmethyl)-amino]-thiazole-4-carboxylic acid [(E)-5-hydroxy-adamantan-2-yl]-amide]",360
2,"O=C(N[C@H]1C2CC3CC1C[C@](O)(C3)C2)c1csc(Nc2ccc(Cl)cn2)n1 [Example 2, 2-(5-Chloro-pyridin-2-ylamino)-thiazole-4-carboxylic acid [(E)-5-hydroxyadamantan-2-yl]-amide]",31
3,"O=C(N[C@H]1C2CC3CC1C[C@](O)(C3)C2)c1csc(Nc2ccncc2)n1 [Example 3, 2-(Pyridin-4-ylamino)-thiazole-4-carboxylic acid [(E)-5-hydroxy-adamantan-2-yl]-amide]",110
4,"O=C(N[C@H]1C2CC3CC1C[C@](O)(C3)C2)c1csc(Nc2cccnc2)n1 [Example 4, 2-(Pyridin-3-ylamino)-thiazole-4-carboxylic acid [(E)-5-hydroxy-adamantan-2-yl]-amide]",26
5,"O=C(N[C@H]1C2CC3CC1C[C@](O)(C3)C2)c1csc(Nc2ccccn2)n1 [Example 5, 2-(Pyridin-2-ylamino)-thiazole-4-carboxylic acid [(E)-5-hydroxy-adamantan-2-yl]-amide]",4000
6,"O=C(N[C@H]1C2CC3CC1C[C@](O)(C3)C2)c1csc(NCCc2ccccc2)n1 [Example 6, 2-(2-Phenyl-ethylamino)-thiazole-4-carboxylic acid [(E)-5-hydroxy-adamantan-2-yl]-amide]",11
7,"O=C(N[C@H]1C2CC3CC1C[C@](O)(C3)C2)c1csc(NCCc2ccccn2)n1 [Example 7, 2-(2-Pyridin-2-yl-ethylamino)-thiazole-4-carboxylic acid [(E)-5-hydroxy-adamantan-2-yl]-amide]",127
8,"O=C(N[C@H]1C2CC3CC1C[C@](O)(C3)C2)c1csc(Nc2ccc(C(F)(F)F)cc2)n1 [Example 8, 2-(4-Trifluoromethyl-phenylamino)-thiazole-4-carboxylic acid [(E)-5-hydroxy-adamantan-2-yl]-amide]",13
9,"COc1ccc(Nc2nc(C(=O)N[C@H]3C4CC5CC3C[C@](O)(C5)C4)cs2)cc1 [Example 9, 2-(4-Methoxy-phenylamino)-thiazole-4-carboxylic acid [(E)-5-hydroxy-adamantan-2-yl]-amide]",2
10,"O=C(N[C@H]1C2CC3CC1C[C@](O)(C3)C2)c1csc(Nc2ccc(Cl)cc2)n1 [Example 10, 2-(4-Chloro-phenylamino)-thiazole-4-carboxylic acid [(E)-5-hydroxy-adamantan-2-yl]-amide]",8.7
11,"O=C(N[C@H]1C2CC3CC1C[C@](O)(C3)C2)c1csc(Nc2ccc(F)cc2)n1 [Example 11, 2-(4-Fluoro-phenylamino)-thiazole-4-carboxylic acid [(E)-5-hydroxy-adamantan-2-yl]-amide]",2.7
12,"O=C(N[C@H]1C2CC3CC1C[C@](O)(C3)C2)c1csc(Nc2ccc(Cl)c(Cl)c2)n1 [Example 12, 2-(3,4-Dichloro-phenylamino)-thiazole-4-carboxylic acid [(E)-5-hydroxy-adamantan-2-yl]-amide]",112

# The next lines start with the values.
row,EC50 [nM],Structure (SMILES)
1,39,"O=C(N[C@H]1C2CC3CC1C[C@](O)(C3)C2)c1csc(NCc2cccnc2)n1 [Example 13, 2-[(Pyridin-3-ylmethyl)-amino]-thiazole-4-carboxylic acid [(E)-5-hydroxy-adamantan-2-yl]-amide]"
2,78,"O=C(N[C@H]1C2CC3CC1C[C@](O)(C3)C2)c1csc(NCc2ccccc2)n1 [Example 14, 2-Benzylamino-thiazole-4-carboxylic acid [(E)-5-hydroxy-adamantan-2-yl]-amide]"
3,165,"O=C(N[C@H]1C2CC3CC1C[C@](O)(C3)C2)c1csc(NCCc2cccnc2)n1 [Example 15, 2-(2-Pyridin-3-yl-ethylamino)-thiazole-4-carboxylic acid [(E)-5-hydroxy-adamantan-2-yl]-amide]"
4,369,"O=C(N[C@H]1C2CC3CC1C[C@](O)(C3)C2)c1csc(NCCc2ccncc2)n1 [Example 16, 2-(2-Pyridin-4-yl-ethylamino)-thiazole-4-carboxylic acid [(E)-5-hydroxy-adamantan-2-yl]-amide]"
5,31,"O=C(N[C@H]1C2CC3CC1C[C@](O)(C3)C2)c1cnc(Nc2ccc(Cl)cn2)s1 [Example 17, 2-(5-Chloro-pyridin-2-ylamino)-thiazole-5-carboxylic acid [(E)-5-hydroxy-adamantan-2-yl]-amide]"
6,48,"Cc1nc(NCCc2ccccc2)sc1C(=O)N[C@H]1C2CC3CC1C[C@](O)(C3)C2 [Example 18, 4-Methyl-2-phenethylamino-thiazole-5-carboxylic acid [(E)-5-hydroxy-adamantan-2-yl]-amide]"

# Biological target: T1, 11βHSD1
# Assay: Human adipocytes cell based assay (cortisone to cortisol, ELISA)
# Settings: human omental adipocytes, 300 nM cortisone, 24 hours at 37° C.
# Experimental: Human Adipocytes Cell Based Assay
# Cells were ordered from ZenBio, RTP, NC (www.zen-bio.com (OA-1096-3)) pre-plated (96 well). Cell Media was supplied by ZenBio (Omental Adipocyte Medium #OM-AM).
# Test compounds were prepared at 10 concentrations (10 μM-0.1 nM). Dilutions were made up in Cell Media. Cell Media from the plate is aspirated and 97 μL was added to the wells.
# The plates were incubated for 15 minutes (37° C.).
# 3 μL of […] cortisone (Sigma #C2755) (300 nM FAC) was added, for a total well volume of 100 μL.
# The plates were incubated for 24 hours (37° C.).
# The media was harvested from cells.
# The samples were then assayed using Cortisol ELISA Kits (R & D Systems #SKGE008). Samples were diluted by a factor of 5. Specific instructions were included in the kit to quantify presence of cortisol in samples through an ELISA assay.
# The plates were read on a Spectramax at 450 nm OD.
row,IC50 [nM],Structure (SMILES)
1,19,"O=C(N[C@H]1C2CC3CC1C[C@](O)(C3)C2)c1csc(Nc2ccc(Cl)cn2)n1 [Example 2, 2-(5-Chloro-pyridin-2-ylamino)-thiazole-4-carboxylic acid [(E)-5-hydroxyadamantan-2-yl]-amide]"
